For experiment [1], the target named is T1, human B1R (Homo sapiens, UniProt P46663).
T1 construct: expressed in transfected cells; host or cells: CHO K1 cells (stably transfected)
T1 sequence (P46663 1-353): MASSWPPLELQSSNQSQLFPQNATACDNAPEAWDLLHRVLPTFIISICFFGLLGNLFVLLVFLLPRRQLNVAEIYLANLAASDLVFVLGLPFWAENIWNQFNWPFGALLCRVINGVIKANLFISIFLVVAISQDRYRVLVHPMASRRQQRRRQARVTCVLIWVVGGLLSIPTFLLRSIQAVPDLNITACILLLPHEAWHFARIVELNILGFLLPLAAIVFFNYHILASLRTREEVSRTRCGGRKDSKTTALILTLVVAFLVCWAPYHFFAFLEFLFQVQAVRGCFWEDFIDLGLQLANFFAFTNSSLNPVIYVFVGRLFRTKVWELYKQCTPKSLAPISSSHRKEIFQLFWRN
As to the kind of experiment: Functional investigation on the bradykinin 1 receptor, cell-based fluorescent calcium-mobilization assay (FLIPR), human. To be noted: 10 μM test substance; CHO K1 cells transfected with human B1R gene; agonist Lys-Des-Arg9-bradykinin at EC80; % of maximum achievable inhibition. Here is the method: (§1) The agonistic or antagonistic action of substances can be quantified on the bradykinin 1 receptor (B1R) of the human and rat species with ectopically expressing cell lines (CHO K1 cells) and with the aid of a Ca2+-sensitive dye (Fluo-4) using a fluorescent imaging plate reader (FLIPR). The value in % activation is based on the Ca2+ signal after addition of Lys-Des-Arg9 bradykinin (0.5 nM) or Des-Arg9 bradykinin (100 nM). Antagonists lead to a suppression of the Ca2+ influx following administration of the agonist. The % inhibition in comparison with the maximum achievable inhibition is indicated.
(§2) The agonistic or antagonistic action of substances can be determined on the bradykinin 1 receptor (B1R) of humans and rats by means of a cell-based fluorescent calcium-mobilization assay. According to this assay agonist-induced increase of intracellular free Ca^2+ is quantified by means of a Ca^2+-sensitive dye (Fluo-4 type, Molecular Probes Europe BV, Leiden, Netherlands), in a Fluorescent Imaging Plate Reader (FLIPR, Molecular Devices, Sunnyvale, USA) and/or the Novostar (BMG Labtech GmbH, Offenburg, Germany).
(§3) Chinese hamster ovary cells (CHO K1 cells), which are stably transfected with the human B1R gene (hB1R cells), or with the B1R gene of rats (rB1R cells) are used. For functional investigations these cells are seeded into black 96-well plates with a clear bottom (BD Biosciences, Heidelberg, Germany or Greiner, Frickenhausen, Germany) in a density of 20,000-35,000 cells/well. The cells are incubated overnight in a humidified atmosphere at 37° C. and 5% CO2 in culture medium (hB1R cells: Nutrient Mixture Ham's F12, Gibco Invitrogen GmbH, Karlsruhe, Germany or DMEM, Sigma-Aldrich, Taufkirchen, Germany; rB1R cells: D-MEM/F12, Gibco Invitrogen GmbH, Karlsruhe, Germany) with 10 vol. % FBS (foetal bovine serum, Gibco Invitrogen GmbH, Karlsruhe, Germany). On the following day the cells are loaded with the Ca^2+-sensitive dye Fluo-4-AM (Molecular Probes Europe BV, Leiden, Netherlands):
(§4) Method A: The medium of the cells is removed and cell plates are incubated with loading solution, which contains 2.13 μM Fluo-4-AM, 2.5 mM probenecid (Sigma-Aldrich, Taufkirchen, Germany), and 10 mM HEPES (Sigma-Aldrich, Taufkirchen, Germany) in HBSS buffer (Hank's buffered saline solution, Gibco Invitrogen GmbH, Karlsruhe, Germany) for 60 minutes at 37° C. After the plates are washed twice with HBSS buffer, HBSS buffer supplemented 0.1% BSA (bovine serum albumin; Sigma-Aldrich, Taufkirchen, Germany), 5.6 mM glucose and 0.05% gelatine (Merck KGaA, Darmstadt, Germany) is added. Cell plates are incubated for at least 20 minutes in the dark at room temperature before they are used for the Ca^2+ measurement in the FLIPR or Novostar. Method B: The plates are washed with buffer A (15 mM HEPES, 80 mM NaCl, 5 mM KCl, 1.2 mM CaCl2, 0.7 mM MgSO4, 2 mg/ml glucose, 2.5 mM probenecid) and subsequently loaded with buffer A containing 2.4 μM Fluo-4-AM and 0.025% pluronic F127 (Sigma-Aldrich, Taufkirchen, Germany) for 60 minutes at 37° C. Cell plates are washed twice with buffer A. Then, buffer A supplemented with 0.05% BSA and 0.05% gelatine is added and cell plates are incubated in the dark at room temperature for at least 20 minutes before measurement in the FLIPR or Novostar is started.
(§5) The Ca^2+-dependent fluorescence is measured both before and after the addition of substances (λex=488 nm, λem=540 nm). For quantification of the effect the highest fluorescence intensity (FC, fluorescence counts) over time is given.
(§6) The FLIPR protocol consists of two substance additions, done within the instrument while continuously monitoring the Ca^2+-dependent fluorescence at 540 nm. When the Novostar was used, one addition had to be done outside the instrument. First of all test substances (10 μM) are pipetted onto the cells and the intracellular Ca^2+ rise is compared with the control (hB1R: Lys-Des-Arg9-bradykinin >=50 nM; rB1R: Des-Arg9-bradykinin >=1 μM). […]

The target of experiment [2] is T2, rat B1R (Rattus norvegicus, UniProt P97583).
T2 construct: expressed in transfected cells; host or cells: CHO K1 cells (stably transfected)
T2 sequence (P97583 1-337): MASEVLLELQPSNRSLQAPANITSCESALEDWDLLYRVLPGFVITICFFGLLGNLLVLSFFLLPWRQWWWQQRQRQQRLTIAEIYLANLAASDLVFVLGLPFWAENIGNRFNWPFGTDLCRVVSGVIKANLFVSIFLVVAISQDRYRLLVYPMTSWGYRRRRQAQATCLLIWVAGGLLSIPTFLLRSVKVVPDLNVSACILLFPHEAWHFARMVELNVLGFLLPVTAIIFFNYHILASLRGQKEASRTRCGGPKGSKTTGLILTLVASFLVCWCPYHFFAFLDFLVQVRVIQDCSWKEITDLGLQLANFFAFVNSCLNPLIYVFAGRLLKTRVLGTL
The experiment in a line: Functional investigation on the bradykinin 1 receptor, cell-based fluorescent calcium-mobilization assay (FLIPR), rat. Particulars: 10 μM test substance; CHO K1 cells transfected with rat B1R gene; agonist Des-Arg9-bradykinin at EC80; % of maximum achievable inhibition. The protocol:
as §1, §2, §3, §4, §5, §6

The results in this text go back to US20120058999A1, “Substituted Tetrahydropyrrolopyrazine Compounds” (Gruenenthal GmbH, priority 2010, published 2012).

`COc1cc(C)c(S(=O)(=O)N2CCn3cccc3C2COCC(=O)N(C)[C@H]2CCC[C@@H](N3CCN(C)CC3)C2)c(C)c1` (relative stereo) [CC-01, 2-[[2-[(4-Methoxy-2,6-dimethyl-phenyl)sulfonyl]-1,2,3,4-tetrahydro-pyrrolo[1,2-a]pyrazin-1-yl]-methoxy]-N-methyl-N-[cis-3-(4-methyl-piperazin-1-yl)-cyclohexyl]-acetamide]: the results for the inhibition at 10 µM in experiment [1] and in experiment [2] were 100% and 105%, respectively.
Taken in the same sequence, the figures for `COc1cc(C)c(S(=O)(=O)N2CCn3cccc3C2CCCC(=O)N(C)[C@H]2CCC[C@@H](N3CCN(C)CC3)C2)c(C)c1` (relative stereo) [CC-02, 4-[2-[(4-Methoxy-2,6-dimethyl-phenyl)sulfonyl]-1,2,3,4-tetrahydro-pyrrolo[1,2-a]pyrazin-1-yl]-N-methyl-N-[cis-3-(4-methyl-piperazin-1-yl)-cyclohexyl]-butyramide] were 87% and 104%.
On the same counts, the results for `COc1ccc2cc(S(=O)(=O)N3CCn4cccc4C3CC(=O)N(C)[C@H]3CCC[C@@H](N4CCN(C)CC4)C3)ccc2c1` (relative stereo) [CC-04, 2-[2-[(6-Methoxy-naphthalen-2-yl)sulfonyl]-1,2,3,4-tetrahydro-pyrrolo[1,2-a]pyrazin-1-yl]-N-methyl-N-[cis-3-(4-methyl-piperazin-1-yl)-cyclohexyl]-acetamide] are 100% and 103%.
Taken in the same sequence, the figures for `CN1CCN([C@@H]2CCC[C@H](N(C)C(=O)CCC3c4cccn4CCN3S(=O)(=O)c3cccc(C(F)(F)F)c3)C2)CC1` (relative stereo) [CC-05, N-Methyl-N-[cis-3-(4-methyl-piperazin-1-yl)-cyclohexyl]-3-[2-[[3-(trifluoromethyl)phenyl]sulfonyl]-1,2,3,4-tetrahydro-pyrrolo[1,2-a]pyrazin-1-yl]-propionamide] were 43% and 91%.
Consider `COc1cc(C)c(S(=O)(=O)N2CCn3cccc3C2COCC(=O)N[C@H]2CCC[C@@H](N3CCN(C)CC3)C2)c(C)c1` (relative stereo) [CC-06, 2-[[2-[(4-Methoxy-2,6-dimethyl-phenyl)sulfonyl]-1,2,3,4-tetrahydro-pyrrolo[1,2-a]pyrazin-1-yl]-methoxy]-N-[cis-3-(4-methyl-piperazin-1-yl)-cyclohexyl]-acetamide], for which the inhibition (in general, the change of the read-out against control, counted positive when it falls) at 10 µM came out at 96% in experiment [1] and 100% in experiment [2].
As for `COc1ccc2cc(S(=O)(=O)N3CCn4cccc4C3CC(=O)N[C@H]3CCC[C@@H](N4CCN(C)CC4)C3)ccc2c1` (relative stereo) [CC-09, 2-[2-[(6-Methoxy-naphthalen-2-yl)sulfonyl]-1,2,3,4-tetrahydro-pyrrolo[1,2-a]pyrazin-1-yl]-N-[cis-3-(4-methyl-piperazin-1-yl)-cyclohexyl]-acetamide], in experiment [1], the inhibition at 10 µM worked out at 100%.
Same read-out and setting: to `COc1cc(C)c(S(=O)(=O)N2CCn3cccc3C2COCC(=O)N(C)C2CCCC(N3CCN(C(C)C)CC3)C2)c(C)c1` (stereo not shown) [CC-50, N-[3-(4-Isopropyl-piperazin-1-yl)-cyclohexyl]-2-[[2-[(4-methoxy-2,6-dimethyl-phenyl)sulfonyl]-1,2,3,4-tetrahydro-pyrrolo[1,2-a]pyrazin-1-yl]-methoxy]-N-methyl-acetamide] belongs 99%.
`COc1cc(C)c(S(=O)(=O)N2CCn3cccc3C2CCCC(=O)N(C)C2CCCC(N3CCN(C(C)C)CC3)C2)c(C)c1` (stereo not shown) [CC-51, N-[3-(4-Isopropyl-piperazin-1-yl)-cyclohexyl]-4-[2-[(4-methoxy-2,6-dimethyl-phenyl)sulfonyl]-1,2,3,4-tetrahydro-pyrrolo[1,2-a]pyrazin-1-yl]-N-methyl-butyramide]: in experiment [1], the inhibition at 10 µM was determined as 99%.
For the molecule `COc1ccc2cc(S(=O)(=O)N3CCn4cccc4C3CC(=O)N(C)C3CCCC(N4CCN(C(C)C)CC4)C3)ccc2c1` (stereo not shown) [CC-52, N-[3-(4-Isopropyl-piperazin-1-yl)-cyclohexyl]-2-[2-[(6-methoxy-naphthalen-2-yl)sulfonyl]-1,2,3,4-tetrahydro-pyrrolo[1,2-a]pyrazin-1-yl]-N-methyl-acetamide], in experiment [1], the inhibition at 10 µM was determined as 100%.
The same measure, in the same setting: to `CC(C)N1CCN(C2CCCC(N(C)C(=O)CCC3c4cccn4CCN3S(=O)(=O)c3cccc(C(F)(F)F)c3)C2)CC1` (stereo not shown) [CC-53, N-[3-(4-Isopropyl-piperazin-1-yl)-cyclohexyl]-N-methyl-3-[2-[[3-(trifluoromethyl)phenyl]sulfonyl]-1,2,3,4-tetrahydro-pyrrolo[1,2-a]pyrazin-1-yl]-propionamide] belongs 87%; to `COc1cc(C)c(S(=O)(=O)N2CCn3cccc3C2COCC(=O)N(C)C2CCCC(N3CCOCC3)C2)c(C)c1` (stereo not shown) [CC-54, 2-[[2-[(4-Methoxy-2,6-dimethyl-phenyl)sulfonyl]-1,2,3,4-tetrahydro-pyrrolo[1,2-a]pyrazin-1-yl]-methoxy]-N-methyl-N-(3-morpholin-4-yl-cyclohexyl)-acetamide], 98%; to `COc1cc(C)c(S(=O)(=O)N2CCn3cccc3C2CCCC(=O)N(C)C2CCCC(N3CCOCC3)C2)c(C)c1` (stereo not shown) [CC-55, 4-[2-[(4-Methoxy-2,6-dimethyl-phenyl)sulfonyl]-1,2,3,4-tetrahydro-pyrrolo[1,2-a]pyrazin-1-yl]-N-methyl-N-(3-morpholin-4-yl-cyclohexyl)-butyramide], 88%.
The same measure, in the same setting: to `COc1ccc2cc(S(=O)(=O)N3CCn4cccc4C3CC(=O)N(C)C3CCCC(N4CCOCC4)C3)ccc2c1` (stereo not shown) [CC-56, 2-[2-[(6-Methoxy-naphthalen-2-yl)sulfonyl]-1,2,3,4-tetrahydro-pyrrolo[1,2-a]pyrazin-1-yl]-N-methyl-N-(3-morpholin-4-yl-cyclohexyl)-acetamide] belongs 99%.
Turning to `CN(C(=O)CCC1c2cccn2CCN1S(=O)(=O)c1cccc(C(F)(F)F)c1)C1CCCC(N2CCOCC2)C1` (stereo not shown) [CC-57, N-Methyl-N-(3-morpholin-4-yl-cyclohexyl)-3-[2-[[3-(trifluoromethyl)phenyl]sulfonyl]-1,2,3,4-tetrahydro-pyrrolo[1,2-a]pyrazin-1-yl]-propionamide], the inhibition at 10 µM in experiment [1] was 39%.
